Legend:
Assay type in all cases: cell-based, S. cerevisiae
GEV-GFP = GEV-GFP nuclear localization after β-estradiol pulse, single-cell microscopy (DBY11415)
Description: Fluorescence was measured with an epifluorescence Nikon Eclipse-TI inverted microscope using a Nikon 40×/0.95NA DIC Plan Apo objective. The microscope is equipped with a PerfectFocus system (Nikon) for maintaining the correct focal plane, a Clara CCD Camera (Andor DR328G) for recording fluorescence emission, and a TI-S-ER motorized stage with encoders to ensure near perfect return to marked stage positions (Nikon MEC56100). GEV-GFP emission was visualized at 525 nm (50-nm bandwidth) upon excitation at 470 nm (40-nm bandwidth) (Chroma #49002_Nikon ETGFP filter cube). […]
Overnight cultures of DBY11415 (MATa/MATα HTB2-mCherry-caURA3/HTB2 his3/HIS3, (gal1+PGAL10):: loxP/GAL1, gal4::LEU2/GAL4, HAP1+/hap1−, leu2Δ0::PACT1-GEV-GFP-KanMX/LEU2) were grown in LFM overnight to saturation. […] The Klett was monitored, and at Klett 40 cells were loaded into 96-well glass-bottomed optical plates for microscopy (Nunc #265300). […]
Image processing was performed by preprocessing the images in ImageJ and then using a custom written Matlab script to extract the intensities in the nuclei relative to the cytoplasm. Briefly, the image processing was done as follows: Fluorescence images were background subtracted using the rolling ball background subtraction command in ImageJ using a ball radius of 50 pixels. […]
These preprocessed images were then analyzed using a custom-written Matlab script. […]

PGAL1-CBF1 = assay: GEV-mediated induction of PGAL1-CBF1 transcript, microarray (DBY12040); details: by 5 minutes following addition of β-estradiol
Description: (§1) For induction experiments, yeast were cultured in 500 mL chemostats (Sixfors; Bottmingen, Switzerland) under phosphate-limitation (20 mg/L potassium phosphate) and pulsed with 1 μM β-estradiol (Tocris Biosciences; Missouri). For the MET4 induction experiment, phosphate-limited media was supplemented with 200 mg/L methionine. Culture volume was maintained at 300 mL. 12-18 hours of batch phase growth prior to pump turn-on was initiated from a 1/60 dilution of cells grown overnight in the same medium. Cultures were grown at 30° C., stirred at 400 RPM, and aerated at 5 L/min with filtered humidified air.
RNA from cells was extracted, labeled, and hybridized to Agilent expression microarrays as described by (Brauer et al., 2008) with slight modifications. Briefly, RNA was extracted from frozen cells with a standard acid-phenol method and then cleaned with RNeasy (Qiagen). Cleaned mRNA was then converted to cDNA and subsequently converted to labeled cRNA with the Agilent Quick-Amp Labeling Kit (Part No. 5190-0424). Microarray hybridizations were performed for 17 hours at 65° C. and rotated on a rotisserie at 20 RPM. Microarrays were washed and then scanned with Agilent Feature Extractor Software version 9.5. […]
For time series experiments, 5 mL of cells were taken per culture per time point. […] Enrichment for gene ontology (GO) terms was determined using GO-term finder (Boyle et al., 2004).

DBY12021 [1] = assay: Growth curves in YPD liquid with β-estradiol
Description: 100 μL of cells+media were grown on flat-bottom 96-well plates (Costar #3631). A600 was measured every 15 minutes in a Synergy HT (Biotek; Vermont) microplate reader. Cells were grown at 30° C. with medium shaking. Growth rates were computed with spline-fits using the grofit R package (KAHM et al. 2010).

DBY12021 [2] = assay: Genome-wide expression after β-estradiol pulse in phosphate-limited chemostat, microarray (DBY12021)
Description: as §1
RNA from cells was extracted, labeled, and hybridized to Agilent expression microarrays as described by (Brauer et al., 2008) with slight modifications. Briefly, RNA was extracted from frozen cells with a standard acid-phenol method and then cleaned with RNeasy (Qiagen). Cleaned mRNA was then converted to cDNA and subsequently converted to labeled cRNA with the Agilent Quick-Amp Labeling Kit (Part No. 5190-0424). Microarray hybridizations were performed for 17 hours at 65° C. and rotated on a rotisserie at 20 RPM. Microarrays were washed and then scanned with Agilent Feature Extractor Software version 9.5. Flagged features marked as unreliable were marked N/A. Raw green- and red-channel intensities were floored to a value of 350 (i.e., intensities below 350 were set equal to 350). If the numerator (red-channel, sample RNA) for a given measurement was floored, the denominator (green-channel, reference RNA) for that measurement was set to the average green channel intensity for that gene. The purpose of this smoothing process is to make genes with negligible red-channel signal intensity less sensitive to small fluctuations in the reference intensity. After flooring of the data, the log 2 ratios were computed.
For time series experiments, 5 mL of cells were taken per culture per time point. Reference RNA was taken from DBY12001 grown in a phosphate-limited chemostat at a dilution rate of 0.18 h^−1. Enrichment for gene ontology (GO) terms was determined using GO-term finder (Boyle et al., 2004).

GEV = assay: β-Galactosidase activity assay, PGAL1-lacZ reporter plasmid pCM64-GAL1 in DBY12100; details: 2 hours incubation, 1 μM or 10 μM DOC
Description: Assays were performed essentially as described in (Liu et al., 1999) with minor modifications. 5 mL of cells transformed with pCM64-GAL1 were grown to midlog phase in SC-URA medium at 30° C., then incubated at indicated temperatures for the indicated times with or without (a) 5 μL of ethanol (vehicle control), (b) 2 μL of 2.5 mM β-estradiol (Sigma) dissolved in ethanol (final concentration of 1 μM), (c) 5 μL of 1 mM DOC (deoxycorticosterone; Sigma) dissolved in ethanol (final concentration of 1 μM), or (d) 5 μL of 10 mM DOC dissolved in ethanol (final concentration of 10 μM). Cells (1 mL) were harvested by centrifugation, washed once with sterile H2O, and resuspended in 700 μl of Z buffer (100 mM sodium phosphate, pH 7.0, 10 mM KCl, 1 mM MgSO4, 50 mM β-mercaptoethanol). 50 μl of chloroform and 50 μl of 0.1% SDS were added, and the cell suspension was vortex-mixed at top speed for 30 seconds followed by addition of 200 μl of 4 mg/ml ONPG (ortho-nitrophenyl-β-galactoside; Sigma) was added to each sample and incubated at room temperature until pale yellow color appeared. […] After clarification by centrifugation, the supernatant was diluted, and A420 was measured within the linear response range. Specific β-galactosidase activity was calculated as follows: (A420×1000)/(A600×(volume of cells examined in ml)×(time of incubation in minutes)) and reported in Miller units. […]

[3] = two hours following saturating (1 μM) β-estradiol addition

Compound | concentration at which the initial rate of localization achieved its maximum (GEV-GFP) | CBF1 transcript level, share of maximal value (PGAL1-CBF1) | effect on growth of GEV-containing cells (DBY12021 [1]; 10 nM β-estradiol) | effect on growth of GEV-containing cells (DBY12021 [1]; high concentrations of β-estradiol) | β-estradiol toxicity, growth of a strain lacking the GEV system (DBY12021 [1]; strain lacking the GEV system) | share of the entire genome affected by GEV-mediated activation (DBY12021 [2]; 3-hour time course, K-means clustering of time course data) | share of all S. cerevisiae genes changed 2-fold (DBY12021 [2]; two hours following 1 μM β-estradiol) | number of genes that decrease 2-fold (DBY12021 [2]; [3]) | number of genes that increase 2-fold (DBY12021 [2]; [3]) | induction of GEV (lacZ activity) (GEV)
C[C@]12CC[C@@H]3c4ccc(O)cc4CC[C@H]3[C@@H]1CC[C@@H]2O [β-estradiol] | ≥ 1 µM | ~70% | no longer show the growth defect | slowing of growth | slow growth does not occur | less than 2% | about 3% | 105 genes | 94 genes | –
C[C@]12CC[C@H]3[C@@H](CCC4=CC(=O)CC[C@@]43C)[C@@H]1CC[C@@H]2C(=O)CO [deoxycorticosterone] | – | – | – | – | – | – | – | – | – | not induced
